≈ marks a conversion by molar mass, not a printed value.

This assay deals with A2780. Put plainly: Cytotoxicity against human A2780 cells. It counts as functional, cell-based.
In the case of `C=C(C)[C@@H]1CC[C@]2(C)CC[C@]3(C)[C@H](CC[C@@H]4[C@@]5(C)CC[C@H](OC(C)=O)C(C)(C)[C@@H]5CC[C@]43C)[C@@H]12` [LUPENYL ACETATE], half-maximal inhibition (IC50) required 22.6 µg/mL.

For the compound `CC(C)=C1C/C=C(\C)CC/C=C(\C)CC1`, the IC50 (usually the concentration that inhibits the measured activity by half) is 6.4 µg/mL (≈ 31.3 µM).

In the case of `C[C@H]1[C@H](C)CC[C@]2(C)CC[C@]3(C)C(=CC[C@@H]4[C@@]5(C)CC[C@H](O)C(C)(C)[C@@H]5CC[C@]43C)[C@H]12`, the IC50 turned out to be 20.6 µg/mL (≈ 48.3 µM).

For `CC1(C)CC[C@]2(C)CC=C3[C@]4(C)CC[C@H]5C(C)(C)[C@@H](O)CC[C@]5(C)[C@H]4CC[C@@]3(C)[C@@H]2C1` [TARAXEROL], the IC50 came out at 21.8 µg/mL (≈ 51.1 µM).

On to `CC1=C2C/C=C(\C)CC/C=C(\C)C[C@@H]2OC1=O` [GLECHOMANOLIDE], for which the IC50 came out at 5.3 µg/mL (≈ 22.8 µM).

In the case of `CC1(C)CC[C@]2(C)CC=C3[C@]4(C)CC[C@H]5C(C)(C)[C@H](O)CC[C@]5(C)[C@H]4CC[C@@]3(C)[C@@H]2C1`, the half-inhibitory concentration (IC50) was found to be 24.4 µg/mL (≈ 57.2 µM).

In the case of `CC(=O)O[C@H]1O[C@H]2C[C@@]13CC=C1[C@]4(C)[C@@H]5O[C@@H]5[C@H]5C(C)(C)[C@H](O)CC[C@]5(C)[C@H]4CC[C@@]1(C)[C@@H]3CC2(C)C`, half-maximal inhibition (IC50) required 21.5 µg/mL (≈ 41.9 µM).

For `C=C[C@]1(C)C[C@@H]2OC(=O)C(C)=C2C[C@H]1C(=C)C` [ISOGERMAFURENOLIDE], inhibition was half-maximal at 4.5 µg/mL (≈ 19.4 µM) (IC50).

With `CC1=C2C[C@H]3O[C@]3(C)CC[C@H]3O[C@@]3(C)C[C@@H]2OC1=O`, the half-inhibitory concentration (IC50) amounted to 3.8 µg/mL (≈ 14.4 µM).

The compound `C=C(C)[C@@H]1CC[C@]2(C)CC[C@]3(C)[C@H](CC[C@@H]4[C@@]5(C)CC[C@H](O)C(C)(C)[C@@H]5CC[C@]43C)[C@@H]12` [LUPEOL] showed an IC50 of 26.4 µg/mL (≈ 61.9 µM).

These data come from ChEMBL document CHEMBL1151217, “New cytotoxic terpenoids from the wood of Vepris punctata from the Madagascar Rainforest” (J Nat Prod, 2004).
